Assays:
[1] = target: T1, Protein disulfide isomerase (PDI) (Homo sapiens, UniProt P07237, I289A); assay: ANS fluorescence binding (λex […] nm), displaced by bepristats, absent with I272A
T1 construct: gene P4HB; isolated b′x domain; full-length PDI
T1 sequence (P07237 236-367 I289A limits assumed): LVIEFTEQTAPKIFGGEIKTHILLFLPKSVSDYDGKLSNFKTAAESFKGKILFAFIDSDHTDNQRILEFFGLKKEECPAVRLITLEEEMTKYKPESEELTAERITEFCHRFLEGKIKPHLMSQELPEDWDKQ

[2] = target: T2, Protein disulfide isomerase (PDI) (Homo sapiens, UniProt P07237); assay: insulin turbidimetric and di-eosin-GSSG reductase assays; type: biochemical; design: gene P4HB; full-length PDI
T2 sequence (P07237 18-508): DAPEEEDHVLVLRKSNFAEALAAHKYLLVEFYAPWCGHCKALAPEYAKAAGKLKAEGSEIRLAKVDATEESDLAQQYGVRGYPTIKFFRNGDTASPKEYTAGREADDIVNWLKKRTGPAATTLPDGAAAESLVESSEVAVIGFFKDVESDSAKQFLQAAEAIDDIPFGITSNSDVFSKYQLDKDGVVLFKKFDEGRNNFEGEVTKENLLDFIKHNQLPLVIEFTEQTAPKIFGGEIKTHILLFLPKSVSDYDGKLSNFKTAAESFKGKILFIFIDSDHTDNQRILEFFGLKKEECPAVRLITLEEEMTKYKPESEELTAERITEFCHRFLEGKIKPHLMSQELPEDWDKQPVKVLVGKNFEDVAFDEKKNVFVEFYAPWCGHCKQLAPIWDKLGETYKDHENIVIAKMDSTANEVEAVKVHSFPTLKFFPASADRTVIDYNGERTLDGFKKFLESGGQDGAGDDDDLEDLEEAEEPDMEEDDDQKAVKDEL

[3] = target: T2, Protein disulfide isomerase (PDI); assay: insulin turbidimetric reductase assay; ANS displacement from PDI and b′x, intrinsic Trp fluorescence, domain mapping; type: biochemical; design: gene P4HB; full-length PDI; also abb′ (residues 1–331), b′xa′ (residues 219–462) and b′x

`O=S(=O)(O)c1cccc2cccc(Nc3ccccc3)c12` [ANS, 1-anilinonaphthalene-8-sulfonic acid] was tested, and the “ANS fluorescence binding (λex 370 nm), displaced by bepristats, absent with I272” value [1] was “ANS fluorescence was prominent on incubation with the isolated b′x domain and weak on incubation with isolated a, a′”.
With `C[C@@H]1O[C@@H](OC[C@H]2O[C@@H](Oc3c(-c4ccc(O)c(O)c4)oc4cc(O)cc(O)c4c3=O)[C@H](O)[C@@H](O)[C@@H]2O)[C@H](O)[C@H](O)[C@H]1O` [Q-3-R, quercetin-3-rutinoside] the “insulin turbidimetric and di-eosin-GSSG reductase assays” value [2] was “these other inhibitors all blocked PDI-mediated cleavage of di-eosin-GSSG when used at concentrations required to inhibit activity”.
`CCN(C)C(=O)C1(CCOc2ccccc2)CCN(Cc2ccc(O)c(Cl)c2)CC1` [bepristat 1a] gave an IC50 [3] of ~0.7 µM.
With bepristat 2a the IC50 [3] was ~1.2 µM.

From paper PMC5013553, “A substrate-driven allosteric switch that enhances PDI catalytic activity” (Nature Communications, 2016)
